Patent US10233184B2, “7-substituted sulfonimidoylpurinone compounds and derivatives for the treatment and prophylaxis of virus infection” (Hoffmann-La Roche Inc., priority 2016, dated 2019)
≈ marks a conversion by molar mass, not a printed value. Read-outs that look alike come from different tables or passages of the source.

Tests used:
LYSA solubility study = assay type: physicochemical; conditions: phosphate buffer, pH 6.5, aqueous buffer, thermodynamic from solid, 0.05M phosphate buffer pH 6.5, read-out: LYSA of Prodrugs
Summary of the method: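 Samples from 10 mM DMSO stock were dried, redissolved in 0.05M phosphate buffer pH 6.5, stirred 1 h, shaken 2 h, left overnight and filtered. Filtrate and 1/10 dilution quantified by HPLC-UV; solubility in μg/mL, reported as greater-than when >80% of the maximum sample amount was in solution.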

[1] = Portal vein study: oral PK in PVC/CAC dual cannulated rat; assay type: in vivo; conditions: prodrug 10 mg/kg oral, analyte prodrug
Protocol: Surgery was performed under pentobarbital/isoflurane anesthesia. Briefly, after disinfecting the abdominal area with betadine and 70% isopropyl alcohol, a small abdominal mid-line incision was made. The cecum was pulled out and mesenteric vein was identified and isolated for about 5 mm vessel. A loose ligature was placed proximally and distal end of the vein was ligated. Make a small incision (just enough to allow the insertion of the catheter) on isolated vein and insert the PU catheter towards liver for appropriate length. The catheter was secured in place by tying the loose ligature around the cannulated vessel. The cecum was replaced into abdominal cavity. A hole was made in the right abdominal wall to make the end of catheter pass freely. The catheter was secured by suture on the abdominal wall. The abdominal muscle incision was closed with suture. A small incision was made in the scapular area to serve as the exit site of the catheter. The catheter was subcutaneously tunneled and exteriorized through the scapular incision. A fixed suture was placed in the scapular region. The patency of the catheter was checked and then exteriorized from the subcutaneous space to the dorsal neck region. After gently wiping the area, the abdominal cavity was sutured. The left carotid artery was then cannulated by inserting a PESO catheter. Both the exteriorized catheters were tied firmly on the dorsal neck region and fixed. The animals was then allowed to recover in its cage and used for study at least 3 days after surgery. All catheters were flushed once daily with heparinized saline to maintain patency. Animals were fasted overnight (n=3) and administered vial oral gavage (10 mg/kg, 10 mL/kg). Blood samples (60 μL) were collected simultaneously from the portal and carotid artery catheters at 0.083, 0.25, 0.5, 1, 2, 4, 7, 24 h. All blood samples will be transferred into microcentrifuge tubes containing 2 μL of K2EDTA (0.5M) as anti-coagulant and placed on wet ice. Then blood samples will be processed for plasma by centrifugation at approximately 4° C., 3000 g within half an hour of collection. Plasma samples will be stored in polypropylene tubes, quick frozen over dry ice and kept at −70±10° C. until LC/MS/MS analysis. Pharmacokinetic parameters (mean±SD, n=3) of prodrugs and active forms in portal and carotid samples following oral administration of prodrugs (10 mg/kg) in portal vein cannulated rat were detected and analyzed.

HBV = assay: In vivo antiviral efficacy in AAV-HBV mouse model; set-up: species or system C57BL/6 mice; conditions: for reduction in HBV DNA / reduction in HBsAg: serum
Text: 4-6 week old male C57BL/6 mice, specific pathogen free, were purchased from Shanghai Laboratory Animal Center of Chinese Academy of Sciences (SLAC) and housed in an animal care facility in individually ventilated cages under controlled temperature and light conditions following the Institutional Animal Care guidelines. AAV-HBV virus was purchased from Beijing FivePlus Molecular Medicine Institute (Beijing, China). The recombinant virus carries 1.3 copies of the HBV genome packaged into AAV serotype 8 (AAV8) capsids. C57BL/6 mice were injected with 200 μL of the recombinant virus diluted in saline buffer through tail vein. On day 14, the mice were bled to measure HBV surface antigen (HBsAg) and HBV genomic DNA in the serum, and animals were then randomized into groups according to these HBV biomarkers.
Serum HBsAg and HBeAg were measured using CLIA kits (Autobio Diagnostics Co., Ltd., Zhengzhou, China) according to the manufacturer's instructions. The lower limit of detection for HBsAg was 0.05 IU/mL. Serum dilution of 500-fold was used to obtain values within the linear range of the standard curve.
Serum HBV DNA was extracted using a MagNA Pure 96 DNA and Viral NA Small Volume Kit (Roche) following the manufacturer's instructions. The DNA samples were analyzed by real-time quantitative PCR (qPCR) using a HBV-specific primer and probe set for specific amplification and detection of a 128 bp HBV genome region from the nucleotide 2969 to 3096. The sequences of the primers and probe are: […]
Anti-HBs in the serum was tested using Anti-HBs CLIA kits (Autobio Diagnostics Co., Ltd., Zhengzhou, China) and mouse anti-IgG conjugated with Biotin (0.5 mg/mL) from a Mabtech B Elispot kit. The anti-IgG Biotin was diluted in PBS with a final concentration of 1 μg/mL. 25 μL of mouse anti-IgG were mixed with serum samples in wells of the plate in the Anti-HBs CLIA kit for 1-hour incubation. Then wash the plate and add Streptavidin-HRP for 1-hour incubation at room temperature. After repeating the washing step, mix substrate A and B from the CLIA kit and add 50 μL of the mixture in each well. After 5-min incubation at room temperature, the plate was read on an Envision Plate Reader (PerkinElmer) to measure luminecence.
The mouse model with high level expression of both HBV DNA and HBsAg was generated by injecting C57BL/6 mice with a recombinant adeno-associated virus (AAV) carrying a replicable HBV genome (AAV-HBV). With long-lasting HBV viremia and fully competent immune system, the AAV-HBV mouse model was utilized to evaluate the antiviral efficacy of the TLR7 agonists following the study design as shown in Table 3.
Specifically, groups 2 and 3 were orally dosed with Example 43-A at 10 mg/kg every other day (QOD) and once weekly (QW), respectively, and the control group 1 received only Vehicle. At the dosing volume of 10 mL/kg, Example 43-A (1 mg/mL) was formulated as an inclusion complex with 2% Klucel LF, 0.5% TPGS, 0.09% Methylparabens, 0.01% Propylparabens in water. The animals were treated for a total of 42 days, and were submandibularly bled twice per week for serum collection throughout the study. The serum samples were subjected to analysis of HBV biomarkers.
The antiviral efficacy of Example 41-A was evaluated in the same AAV-HBV model following the study design in Table 4 with the same methods to measure HBV biomarkers as described in Example 51.
Specifically, groups 2, 3 and 4 were orally dosed with Example 41-A at 1, 3 and 10 mg/kg QOD respectively. Group 5 was treated with 10 mg/kg QW, while group 1 with only Vehicle. At the dosing volume of 10 mL/kg, Example 41-A (0.1, 0.3, and 1 mg/mL) was formulated as an inclusion complex with 2% Klucel LF, 0.5% TPGS, 0.09% Methylparabens, 0.01% Propylparabens in water. The animals were treated for a total of 42 days, and were submandibularly bled twice per week for serum collection throughout the study. The serum samples were subjected to analysis of HBV biomarkers. […]

[2] = carotid artery plasma, read-out: AUC0-2 (nM · h), prodrug, Carotid sampling
[3] = carotid artery plasma, read-out: Cmax (nM), prodrug, Carotid sampling
[4] = carotid artery plasma, read-out: Tmax (h), prodrug, Carotid sampling
[5] = portal vein plasma, read-out: AUC0-2 (nM · h), prodrug, Portal sampling
[6] = portal vein plasma, read-out: Cmax (nM), prodrug, Portal sampling
[7] = portal vein plasma, read-out: Tmax (h), prodrug, Portal sampling
[8] = AAV-HBV mice, 1, 3, 10 mg/kg PO QOD (all three doses)
[9] = AAV-HBV mice, 1, 3, 10 mg/kg PO QOD, 42 days
[10] = AAV-HBV mice, 1, 3, 10 mg/kg PO QOD, 42 days, all treated groups
[11] = AAV-HBV mice, 10 mg/kg PO QOD, 42 days
[12] = AAV-HBV mice, 10 mg/kg PO QW, 42 days

Compound | solubility thermodynamic (LYSA solubility study) [µg/mL] | AUC(0-t) [1, 2] [µM·h] | Cmax [1, 3] [nM] | Tmax [1, 4] [h] | AUC(0-t) [1, 5] [µM·h] | Cmax [1, 6] [nM] | Tmax [1, 7] [h] | levels of HBV DNA and HBsAg at the end of the 42-day treatment (HBV; [8]) | effect on HBV DNA and HBsAg (HBV; [9]) | anti-HBsAg antibody level (HBV; [10]) | levels of HBV DNA and HBsAg at the end of the 42-day treatment (HBV; AAV-HBV mice, 10 mg/kg PO QOD) | reduction in HBV DNA (HBV; [11]) [log] | reduction in HBsAg (HBV; [11]) [log] | reduction in HBV DNA (HBV; [12]) [log] | reduction in HBsAg (HBV; [12]) [log] | anti-HBsAg antibody level (HBV; AAV-HBV mice, 10 mg/kg PO, regardless of QOD and QW, 42 days) | levels of HBV DNA and HBsAg at the treatment end (HBV; [12]) | anti-HBsAg antibody level (HBV; AAV-HBV mice, 1, 3, 10 mg/kg PO QOD and 10 mg/kg QW, post treatment, versus Vehicle)
CCN(C)C(=O)n1c(=O)n(Cc2ccc(Cl)cc2)c2nc([S@@](=N)(=O)CC)nc(N)c21 [Example 42-A, 6-Amino-9-[(4-chlorophenyl)methyl]-N-ethyl-2[S(S)-ethylsulfonimidoyl]-N-methyl-8-oxo-purine-7-carboxamide] | 225 (≈ 498 µM) | 0.286 | 286 | 0.22 | 3.46 | 8920 | 0.19 | below or close to the LLOQ | all effective to reduce HBV DNA and HBsAg | significantly higher levels of anti-HBsAg antibody |  |  |  |  |  |  |  | 
CCCN(C)C(=O)n1c(=O)n(Cc2ccc(C)cc2)c2nc([S@](=N)(=O)CC)nc(N)c21 [Example 43-A, 6-Amino-2-[S(R)-ethylsulfonimidoyl]-N-methyl-8-oxo-N-propyl-9-(p-tolylmethyl)purine-7-carboxamide] | 203 (≈ 456 µM) | 0.124 | 191 | 0.22 | 2.07 | 4110 | 0.28 |  |  |  | undetectable and below the lower limit of quantification (LLOQ) | > 3 | > 2.8 | > 2 | > 2.8 | induced a considerable level of anti-HBsAg antibody |  | 
CCCN(C)C(=O)n1c(=O)n(Cc2ccc(Cl)cc2)c2nc([S@@](=N)(=O)CC)nc(N)c21 [Example 41-B, 6-Amino-9-[(4-chlorophenyl)methyl]-2-[S(S)-ethylsulfonimidoyl]-N-methyl-8-oxo-N-propyl-purine-7-carboxamide] | 250 (≈ 537 µM) | 0.0225 | 29.6 | 0.25 | 1.44 | 7070 | 0.19 | below the LLOQ | all effective to reduce HBV DNA and HBsAg | high levels of anti-HBsAg antibody than the Vehicle group |  |  |  |  |  |  |  | 
CCCN(C)C(=O)n1c(=O)n(Cc2ccc(Cl)cc2)c2nc([S@](=N)(=O)CC)nc(N)c21 [Example 41-A, 6-Amino-9-[(4-chlorophenyl)methyl]-2-[S(R)-ethylsulfonimidoyl]-N-methyl-8-oxo-N-propyl-purine-7-carboxamide] | 260 (≈ 558 µM) | 0.114 | 210 | 0.19 | 2.19 | 9700 | 0.14 | below or close to the LLOQ | dose-dependently reduced HBV DNA and HBsAg |  |  |  |  |  |  |  | undetectable levels | significantly higher levels of antibody against-HbsAg than Vehicle
